Values of other authors as cited in article PMC6499206, “Quantification of Volatile Metabolites Derived From Garlic (Allium sativum) in Human Urine” (Frontiers in Nutrition, 2019).

System: cardiac hypertrophy
Parameters: method as in PMID 28194108
Settings: rats; by increasing Na+/K+-ATPase; cited from earlier work

Structure (SMILES): C=CCSC [AMS, allyl methyl sulfide]
- effect on cardiac hypertrophy: attenuated cardiac hypertrophy

Structure (SMILES): C=CC[S+](C)[O-] (centres unmarked) [AMSO, allyl methyl sulfoxide]
- effect on cardiac hypertrophy: attenuated cardiac hypertrophy
